# Measurements from US12458818B2, “Anti-trophoblast cell surface antigen 2 (TROP2) antibodies and antibody drug conjugates comprising same” (CSPC MEGALITH BIOPHARMACEUTICAL CO., LTD., priority 2019, dated 2025).
# Positions count from the first letter of the chain named.
# T1: human TROP2 (Homo sapiens, UniProt P09758)
# T1 sequence (P09758 27-323): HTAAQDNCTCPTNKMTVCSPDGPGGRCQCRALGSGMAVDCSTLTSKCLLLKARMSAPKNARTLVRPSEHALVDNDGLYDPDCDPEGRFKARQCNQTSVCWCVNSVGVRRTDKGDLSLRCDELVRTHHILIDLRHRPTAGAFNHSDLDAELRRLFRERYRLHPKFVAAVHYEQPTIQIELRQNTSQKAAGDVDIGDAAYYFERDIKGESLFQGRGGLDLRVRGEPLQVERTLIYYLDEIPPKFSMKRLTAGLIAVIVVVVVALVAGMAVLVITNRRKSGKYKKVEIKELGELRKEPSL
# B1: 1B3: mouse anti-human TROP2 antibody, VH SEQ ID NO: 22, VL SEQ ID NO: 27 (antibody, V domains shown)
# VH: QVQLQQSGAELVRPGVSVKISCKGSGYTFTDYSINWVKQSHAKSLEWIGVISTYYGDASYNQKFKGKATMTVDKSSSTAYMELARLTSEDSAIYYCARYGDGYNQFDYWGQGTTLTVSS
# VL: DIVLTQSPASLAVSLGQRATISCRVSESVDSYGNNFMHWYQQKPGQPPKLLIYRASNLESGVPARFSGSGSGTDFTLTINPMEADDVATYYCQQSYEDPYTFGGGTKLEIK
# B2: 15D9: mouse anti-human TROP2 antibody, VH SEQ ID NO: 24, VL SEQ ID NO: 29 (antibody, V domains shown)
# VH: QVQLQQSGAELVRPGVSVKISCKGSGYTFTDYSIHWVKQSHAKSLEWIGVISSYYGDATYNQKFKGKATMTVDKSSSTAYMELARLTSEDSAIYYCALLGAYNYFDYWGQGTTLTVSS
# VL: B1 VL with V25A, N35S, I52V, V62I, G72R, M82V, Y100P
# B3: 17B6: mouse anti-human TROP2 antibody, VH SEQ ID NO: 26, VL SEQ ID NO: 31 (antibody, V domains shown)
# VH: QVQLQQSGAELVRPGVSVKISCKGSGYTFTDYGMNWVKQSHAKSLEWIGVISTFYGDANYNQKFKGKATMTVDKSSSTAYMELARLTSEDSAIYYCARRGNYDSMDYWGQGTSVTVSS
# VL: B1 VL with A9V, S10F, V25A, N35S, V62I, G72R, M82V, A88E, Y100P, K111E
# B4: 15A10: mouse anti-human TROP2 antibody, VH SEQ ID NO: 23, VL SEQ ID NO: 28 (antibody, V domains shown)
# VH: EVQLEQSGPGLVQPSQSLSITCTVSGFSLTRYGVHWVRQSPGRSLEWLGVIWSGGNTDYNAAFISRLTITKDNSKSQVFFKMNSLQPNDTGVYYCAREDRYVGEFAYWGQGTLVTVSA
# VL: B1 VL with P8T, V25A, N35S, M37I, V62I, G72R, M82V, Y96N, Y100R
# B5: 17D1: mouse anti-human TROP2 antibody, VH SEQ ID NO: 25, VL SEQ ID NO: 30 (antibody, V domains shown)
# VH: B2 VH with V50L, S53T, N61T
# VL: B1 VL with V25A, N35S, I52V, V62I, G72R, M82V, V87I, Y100P
# What was measured:
# BxPC-3 = assay: In vitro cytotoxicity assay, BxPC-3; format: cell-based; settings: BxPC-3 human pancreatic adenocarcinoma cell line
# Method: (§1) DP002-HC1LC1-ADC is an antibody-drug conjugate comprising anti-TROP antibody DP002-HC1LC1, which comprises HCl (SEQ ID NO: 52) and LC 1 (SEQ ID NO: 58), conjugated to monomethyl auristatin E (MMAE) at a drug-antibody ratio (DAR) of 2. A DP002-HC1LC1-ADC was prepared using a conjugation method described in WO 2015/191883. A series of in vitro cytotoxicity assays were performed to assess the ability of DP002-HC1LC1-ADC to inhibit the growth of the following TROP2 expressing cancer cell lines: HCC1954 (a human breast carcinoma cell line), BxPC-3 (a human pancreatic adenocarcinoma cell line), and NCI-N87 (a human gastric carcinoma cell line). Experiments using staurospirone, a positive apoptosis control, and anti-TROP2 antibody DP002-HC4LC5, which comprises HC4 (SEQ ID NO: 55) and LC5 (SEQ ID NO: 62), were performed in parallel.
# MDA-MB-468 = assay: In vitro cytotoxicity assay, MDA-MB-468; format: cell-based; settings: MDA-MB-468 TROP2+ human breast adenocarcinoma cell line
# Method: (§2) Additional in vitro cytotoxicity assays were performed to test the ability of DP002-HC1LC1-ADC to inhibit the growth of MDA-MB-468 (a TROP2^+ human breast adenocarcinoma cell line) and HCC38 (a TROP2^+ human mammary ductal carcinoma cell line).
# HCC1954 = assay: In vitro cytotoxicity assay, HCC1954; format: cell-based; settings: HCC1954 human breast carcinoma cell line
# Method: as §1
# NCI-N87 = assay: In vitro cytotoxicity assay, NCI-N87; format: cell-based; settings: NCI-N87 human gastric carcinoma cell line
# Method: as §1
# HCC38 = assay: In vitro cytotoxicity assay, HCC38; format: cell-based; settings: HCC38 TROP2+ human mammary ductal carcinoma cell line
# Method: as §2
# human TROP2 = target: T1, human TROP2; assay: Surface plasmon resonance kinetics and affinities (Table 8B); format: binding; settings: SPR, analyte TROP2
# Method: Surface plasmon resonance (SPR) experiments were performed to determine the kinetics and affinities of certain antibodies shown in Table 8A.
# SKBR3 cells = assay: FACS internalization of anti-TROP2 antibodies by SKBR3 cells; format: cell-based, human; settings: 20 nM antibody mixed with 60 nM pHAb-labelled secondary antibody, overnight incubation
# Method: FACS experiments were performed to verify that antibodies 1B3, 15D9, 15A10, 17B6, and 17D1 were internalized by SKBR3 cells. SKBR3 is a TROP2-expressing human breast carcinoma cell line. Briefly, 1.2×10^5 SKBR3 cells were seeded into each 12-well plates and cultured overnight. 300 μL of 20 nM control antibody, 1B3, 15D9, 15A10, 17B6, or 17D1 (in DMEM-10) were mixed with 300 μL 60 nM pHAb-labelled secondary antibody for 15 minutes at room temperature in the dark. The labeled antibodies mixtures were added to the SKBR3 cells and incubated overnight. Following overnight incubation, the SKBR3 cells were trypsinized, washed twice with 1% BSA/PBS, and analyzed via flow cytometry.
molecule,measurement,setting,value
"CN[C@@H]1C[C@H]2O[C@@](C)([C@@H]1OC)n1c3ccccc3c3c4c(c5c6ccccc6n2c5c31)C(=O)NC4 [Staurosprione, staurospirone]",IC50,BxPC-3,5.37 nM
same,Max % inhibition,BxPC-3,98.02%
same,Max % inhibition,BxPC-3; listed as staurospirone,greater than 93%
same,IC50,MDA-MB-468,14.7 nM
same,Max % inhibition,MDA-MB-468,92.38%
same,IC50,HCC1954,21.7 nM
same,Max % inhibition,HCC1954,95.12%
same,Max % inhibition,HCC1954; listed as staurospirone,greater than 93%
same,IC50,NCI-N87,9.31 nM
same,Max % inhibition,NCI-N87,93.44%
same,Max % inhibition,NCI-N87; listed as staurospirone,greater than 93%
same,IC50,HCC38,4.26 nM
same,Max % inhibition,HCC38,99.44%
Control: biosimilar of the anti-TROP2 antibody sacituzumab [reference compound],Kd,human TROP2,0.4 nM
same,Rmax,human TROP2,50.7
same,ka,human TROP2,511000 M⁻¹ s⁻¹
same,kd,human TROP2,0.000204 s⁻¹
B1,internalization by SKBR3 cells (flow cytometry),SKBR3 cells,internalized
B2,internalization by SKBR3 cells (flow cytometry),SKBR3 cells,internalized
B3,internalization by SKBR3 cells (flow cytometry),SKBR3 cells,internalized
B4,internalization by SKBR3 cells (flow cytometry),SKBR3 cells,internalized
B5,internalization by SKBR3 cells (flow cytometry),SKBR3 cells,internalized
